Experimental data taken from patent publication US20080114066A1, “Synergistic Effects Of Docosahexaenoic Acid (DHA) And Carotenoid Absorption Of Cognitive Function” (Trustees of Tufts College, priority 2005, published 2008).

Tests used:
[1] = Serum DHA by gas-liquid chromatography; assay type: in vivo, human; conditions: after 2 and 4 months of supplementation
Method: (§1) Women were randomly assigned to one of four groups: Control (n=10), DHA (n=14, DHA 800 mg/d), lutein (n=12, lutein 12 mg/d), and lutein+DHA (n=14, lutein 12 mg/d; DHA 800 mg/d) (C, D, L, and LD, respectively). The supplement type was randomized. Subjects visited the Jean Mayer USDA Human Nutrition Research Center on Aging at Tufts University on days that supplements were distributed and blood obtained (0 mo-baseline, 2 mo, and 4 mo). Subjects were instructed to take the supplement with a nutritional energy drink (8 oz., Boost®, Mead Johnson Nutritionals) but were otherwise asked to not alter their diets. The diet of each subject was monitored with food frequency questionnaires (Block G, et al., A data-based approach to diet questionnaire design and testing. Am J Epidemiol, 1986. 24: p. 453-469) completed at baseline, 2 months and 4 months to be sure that there were no confounding changes in dietary intake. […] Compliance was by monitored by interview, compliance calendars and capsule count. […] Aliquots of serum are stored at −70° C. until analyzed. […]
(§2) Serum carotenoids were extracted and analyzed by HPLC using the method described by Yeum et al. (Yeum, K. J., et al., Am J Clin Nutr, 1996. 64(4): p. 594-602.). […]
(§3) Results are expressed as mean ±SE. […]

[2] = system: non-smoking women (60-80 years); test: Verbal Fluency Test; assay type: in vivo, human; conditions: group mean
Source text: (§4) Subjects: Fifty non-smoking women (60-80 years) were recruited from the general population for a 4 month supplementation study. All subjects underwent a screening examination that includes a medical history, a physical examination, and a routine blood clinical chemistry profile. Volunteers with any history or biochemical evidence of lactose intolerance, liver, kidney, or pancreatic disease, anemia, active bowel disease or resection, insulin-dependent diabetes, easy bruising or bleeding, bleeding disorders, hyperglyceridemia, hyperlipidproteinemia, or alcoholism were excluded from the study. Moreover, individuals taking mineral oil or medications suspected of interfering with fat-soluble vitamin absorption were excluded. Subjects using steroids or non-steroid anti-inflammatory drugs, or antihistamine drugs were excluded. […] Subjects were excluded if they have taken any nutrient supplement for 2 months or more before admission into the study or carotene supplements 6 months or more before the study. Smoking was not permitted during the course of the study.
Women were randomly assigned to one of four groups: Control (n=10), DHA (n=14, DHA 800 mg/d), lutein (n=12, lutein 12 mg/d), and lutein+DHA (n=14, lutein 12 mg/d; DHA 800 mg/d) (C, D, L, and LD, respectively). The supplement type was randomized. Subjects visited the Jean Mayer USDA Human Nutrition Research Center on Aging at Tufts University on days that supplements were distributed and blood obtained (0 mo-baseline, 2 mo, and 4 mo). Subjects were instructed to take the supplement with a nutritional energy drink (8 oz., Boost®, Mead Johnson Nutritionals) but were otherwise asked to not alter their diets. The diet of each subject was monitored with food frequency questionnaires (Block G, et al., A data-based approach to diet questionnaire design and testing. Am J Epidemiol, 1986. 24: p. 453-469) completed at baseline, 2 months and 4 months to be sure that there were no confounding changes in dietary intake. All subjects completed at least two sets of cognitive and mood self-report tests, at the beginning of the study, then at the end of the study, after four months of supplementation, at the Schepens Eye Research Institute. Compliance was by monitored by interview, compliance calendars and capsule count. Both the subjects and the experimenter were masked to the experimental groups. Blood samples were collected at baseline, 2 months and 4 months, and serum was separated from red blood cells (800×g, 10 minutes). Aliquots of serum are stored at −70° C. until analyzed. […]

[3] = background statement; cited from earlier work
[4] = system: serum lipoproteins (VLDL, LDL, HDL); test: Serum cholesterol, lipoproteins and lipoprotein subfractions by NMR spectroscopy; assay type: in vivo, human; conditions: for Serum HDL concentration / Serum LDL concentration / Serum VLDL concentration / Serum total Cholesterol concentration: after 4 months of supplementation, mean ± se
Method: At study end (4 mo), serum was analyzed for total cholesterol, lipoproteins (VLDL, LDL, HDL) as well as lipoprotein subfractions using NMR spectroscopy (Otvos, J. D., Clin Lab, 2002. 48: p. 171-180). The NMR method employs the characteristic methyl group signals broadcast by lipoprotein subclasses of different size as the basis for their quantification. Each measurement includes the concentrations of 5 subclasses of HDL (larger numbers denoting larger subclasses), 3 subclasses of LDL and 6 subclasses of VLDL (V1-V6). Lipoprotein subclasses were grouped into large, intermediate and small subclasses. That is, large, intermediate, and small HDL were H5+H4, H3, and H2+H1, respectively. Large, intermediate and small LDL were L3, L2, and L1, respectively. And large, intermediate and small VLDL were V6+V5, V4+V3, and V2+V1, respectively.
Results are expressed as mean ±SE. Within each group, each subject was followed longitudinally and significant differences from baseline were measured using Student's paired t-test (Systat version10, Port Richmond, Calif. Group differences were measured using ANOVA followed by the Bonferroni post hoc test (Systat10).

[5] = system: non-smoking women (60-80 years); test: Word List Memory Test; assay type: in vivo, human; conditions: group mean
Source text: as §4
(§5) Women were randomly assigned to one of four groups: Control (n=10), DHA (n=14, DHA 800 mg/d), lutein (n=12, lutein 12 mg/d), and lutein+DHA (n=14, lutein 12 mg/d; DHA 800 mg/d) (C, D, L, and LD, respectively). The supplement type was randomized. Subjects visited the Jean Mayer USDA Human Nutrition Research Center on Aging at Tufts University on days that supplements were distributed and blood obtained (0 mo-baseline, 2 mo, and 4 mo). Subjects were instructed to take the supplement with a nutritional energy drink (8 oz., Boost®, Mead Johnson Nutritionals) but were otherwise asked to not alter their diets. The diet of each subject was monitored with food frequency questionnaires (Block G, et al., A data-based approach to diet questionnaire design and testing. Am J Epidemiol, 1986. 24: p. 453-469) completed at baseline, 2 months and 4 months to be sure that there were no confounding changes in dietary intake. All subjects completed at least two sets of cognitive and mood self-report tests, at the beginning of the study, then at the end of the study, after four months of supplementation, at the Schepens Eye Research Institute. Compliance was by monitored by interview, compliance calendars and capsule count. Both the subjects and the experimenter were masked to the experimental groups. Blood samples were collected at baseline, 2 months and 4 months, and serum was separated from red blood cells (800×g, 10 minutes). Aliquots of serum are stored at −70° C. until analyzed. At baseline and 2 months, a two month supply of placebo supplements, DHA (800 mg/d, DHASCO, Martek Biological Sciences), lutein (12 mg/d plus 0.5 mg zeaxanthin, Kemin Foods), or lutein+DHA (12 mg/d and 800 mg/d, respectively and nutritional energy drink was provided. At baseline and 4 months, subjects visited the Schepens Eye Research Institute (Boston, Mass.) for testing of MP optical density (MPOD) and an ophthalmic exam. There were two visits at each time point.
(§6) Supplementation Protocol. Dietary supplements in capsule form were Lutein (12 mg/day) (Kemin Foods) and Docosahexaenoic Acid (DHASCO) (800 mg/day) (Martek Biological Sciences). Participants in each of the four supplementation groups were instructed to drink one can of a nutritional supplement daily (Boost Plus) (Mead Johnson) when taking their capsules. Subjects ingested their dietary supplements daily for a period of 4 months. Both the subjects and the experimenter were masked to the experimental groups.
(§7) Tests and Measurements. The battery of cognitive tests included tests of memory and processing speed or attention and a measure of self-reported mood. […] Early cognitive markers of the incidence of dementia and mortality: A longitudinal population-based study of the oldest old. International Journal of Geriatric Psychiatry, 12, 53-59; Payton, M., Riggs, K. M., Spiro III, A., Weiss, S. T. & Hu, H. (1998). […]

[6] = system: non-smoking women (60-80 years); test: NES2 Pattern Comparison (Pattern Recognition) Test; assay type: in vivo, human; conditions: group mean
Source text: as §4, §5, §6, §7

[7] = Serum carotenoids (lutein, zeaxanthin) by HPLC; assay type: in vivo, human; conditions: after 2 and 4 months of supplementation
Method: as §1, §2, §3

[8] = system: non-smoking women (60-80 years); test: Shopping List Task (memory test); assay type: in vivo, human; conditions: group mean
Source text: as §4, §5, §6, §7

[9] = Baseline, before supplementation
[10] = Final, after 4 months of supplementation (DHA 800 mg/d and/or lutein 12 mg/d)
[11] = Final, after 4 months of supplementation

SMILES	Verbal Fluency [2, 9]	Verbal Fluency [2, 10]	Serum HDL concentration [4]	Serum LDL concentration [4]	Serum VLDL concentration [4]	Serum total Cholesterol concentration [4]	Word List Memory Test Delayed Recall (max. 10) [5, 9]	Word List Memory Test Trial 1 Items Recalled (max. 10) [5, 9]	Word List Memory Test Trials to Learned List (max. 4) [5, 9]	Word List Memory Test Delayed Recall (max. 10) [5, 11]	Word List Memory Test Trial 1 Items Recalled (max. 10) [5, 11]	Word List Memory Test Trials to Learned List (max. 4) [5, 11]	Pattern Recognition Test Mean Response Time-Correct [6, 9]	Pattern Recognition Test Number Correct (max. 15) [6, 9]	Pattern Recognition Test Mean Response Time-Correct [6, 11]	Pattern Recognition Test Number Correct (max. 15) [6, 11]	Shopping List Memory Test Delayed Recall (max. 10) [8, 9]	Shopping List Memory Test Trial 1 Items Recalled (max. 10) [8, 9]	Shopping List Memory Test Trials to Learned List (max. 6) [8, 9]	Shopping List Memory Test Delayed Recall (max. 10) [8, 11]	other results
CC1=C[C@H](O)CC(C)(C)[C@H]1/C=C/C(C)=C/C=C/C(C)=C/C=C/C=C(C)/C=C/C=C(C)/C=C/C1=C(C)C[C@@H](O)CC1(C)C [Lutein, lutein]	11.3	15.5	70 ± 5 mg cholesterol/dL	113 ± 6 mg cholesterol/dL	75 ± 12 mg cholesterol/dL	199 ± 8 mg cholesterol/dL	6.8	5.8	3.4	7.6	5.8	3.5	6.1 s	14.5	6.4 s	14.3	8.3	6.9	4.2	7.6	Serum concentration of DHA, change from baseline [1]: No significant changes; Share transported in blood on HDL [3]: about 53%; Share transported in blood on LDL [3]: about 31%; Share transported in blood on VLDL [3]: about 16%; Intermediate HDL subclass, group comparison ([4]; study end (4 mo)): significantly greater in the L group than in the LD group; Serum concentration of lutein, change from baseline [7]: significantly increased; Shopping List Memory Test Trial 1 Items Recalled (max. 10) [8, 11]: 6.5; Shopping List Memory Test Trials to Learned List (max. 6) [8, 11]: 3.9
CC/C=C\C/C=C\C/C=C\C/C=C\C/C=C\C/C=C\CCC(=O)O [DHA, cis-4,7,10,13,16,19-docosahexaenoic acid]	15.0	17.8	67 ± 3 mg cholesterol/dL	125 ± 5 mg cholesterol/dL	78 ± 14 mg cholesterol/dL	209 ± 5 mg cholesterol/dL	8.1	6.3	3.0	8.6	5.9	3.0	5.4 s	14.6	5.0 s	14.6	9.0	7.2	3.1	8.7	Shopping List Memory Test Trial 1 Items Recalled (max. 10) [8, 11]: 7.7; Shopping List Memory Test Trials to Learned List (max. 6) [8, 11]: 2.6
